Experimental data as given in paper PMC11480954, “Molecular determinants of resurgent sodium currents mediated by Navβ4 peptide and A-type FHFs” (Frontiers in Molecular Neuroscience, 2024).

Key:
[1] = biological target: T1, human Nav1.7 R1599P (rpNav1.7) (Homo sapiens, UniProt Q15858, R1610P); assay: Inhibition of Navβ4 peptide-mediated rpNav1.7 INaR; assay type: cell-based; details: 100 μM Navβ4 peptide + 1 mM FHF4A peptide, HEK293; n = 5
T1 construct: expressed in transfected cells; host or cells: HEK293 cells, transient transfection with pcDNA3.1 construct

human Nav1.8 [2] = assay: INaR, Nav1.8 co-expressed with FHF2B; assay type: cell-based
Protocol: (§1) HEK293 cells and ND7/23 cells were grown under standard tissue culture conditions (5% CO2 and 37°C) in DMEM supplemented with 10% FBS, 1% penicillin and 1% streptomycin. Using Invitrogen Lipofectamine 2000, human Nav1.7 R1599P (rpNav1.7) and the mutant constructs were transiently co-transfected with Navβ1 and Navβ2 into HEK293 cells. The constructs human Nav1.8 and mutants were transiently co-transfected with FHF2B or FHF4A into ND7/23 cells. The lipofectamine-DNA mixture was added to the cell culture medium and left for 3 h after which the cells were washed with fresh medium. Cells with green fluorescent protein fluorescence were selected for whole-cell patch-clamp recordings 36–72 h after transfection.
(§2) Whole-cell voltage-clamp recordings were performed at room temperature (~21°C) using an EPC-10 amplifier and the Pulse program (HEKA Electronics). Fire-polished electrodes (0.7–1.0 MΩ) were fabricated from 1.7 mm capillary glass using a P-97 puller (Sutter Instruments), and the tips were coated with sticky wax (KerrLab) to reduce electrode capacitance and enable increased series resistance compensation. The pipette solution contained (in mM) 140 CsF, 1.1 EGTA, 10 NaCl, and 10 HEPES, pH 7.3. The bathing solution was (in mM) 130 mM NaCl, 30 mM TEA chloride, 1 mM MgCl2, 3 mM KCl, 1 mM CaCl2, 10 mM HEPES, and 10 mM d-glucose, pH 7.3 (adjusted with NaOH). […] The offset potential was zeroed before contacting the cell. After establishing the whole-cell recording configuration, the resting potential was held at −120 or −100 mV for 5 min to allow adequate equilibration between the micropipette solution and the cell interior. Linear leak subtraction, based on resistance estimates from four to five hyperpolarizing pulses applied before the depolarizing test potential, was used for all voltage clamp recordings. Membrane currents were usually filtered at 5 kHz and sampled at 20 kHz. […] Voltage errors were minimized using 80–95% series resistance compensation, and the capacitance artifact was canceled using the computer-controlled circuitry of the patch clamp amplifier. […] The concentration-dependent curves were fitted to a hill equation: Y = Bottom + (Top-Bottom)/(1 + 10^((LogEC50-X)*HillSlope)).
(§3) INaR: INaR was elicited by repolarizing voltage steps from +20 to −80 mV for 100 ms (or 200 ms) in −5 mV increments, following a 20-ms depolarizing potential of +30 mV. […] The relative INaR in Nav1.7 and Nav1.8 was calculated by normalizing to the peak transient current elicited at −10 or 0 mV.

Nav1.8 Y1717K = assay: INaR, Nav1.8 mutant Y1717K; assay type: cell-based, human; details: 1 mM FHF4A peptide, + FHF2B, ND7/23; n = 10; p > 0.05 vs Nav1.8
Protocol: as §1
Whole-cell voltage-clamp recordings were performed at room temperature (~21°C) using an EPC-10 amplifier and the Pulse program (HEKA Electronics). […]
as §3

human Nav1.8 [3] = assay: Gating properties (steady-state activation, inactivation, INaP), Nav1.8; assay type: cell-based
Protocol: as §1, §2
Families of sodium currents were induced by 50-ms depolarizing steps to various potentials ranging from −120 (or −100) to +40 mV in 5-mV increments. The conductance was calculated using the equation G(Nav) = I/(V - Vrev) in which I, V, and Vrev represent inward current value, membrane potential, and reversal potential, respectively.
Voltage dependence of steady-state inactivation was estimated using a standard double pulse protocol in which sodium currents were induced by a 50-ms depolarizing potential of 0 mV following a 500-ms prepulse at potentials that ranged from −150 to +10 mV with a 10-mV increment. Currents were plotted as a fraction of the maximum peak current. To obtain the midpoint voltages (V1/2) and slope factor (k), the curves of both steady-state activation and inactivation were fitted to a Boltzmann function.

Nav1.8 = details: ref Xiao et al., 2022; cited from earlier work
Description: This mechanism requires that the peptides compete with the fast inactivation particle to block open VGSCs at strong positive potentials and unblocks upon repolarization so that the channels can reconduct ([Cannon and Bean, 2010]).

[4] = Nav1.8 + FHF2B, ND7/23, 1 mM FHF4A peptide
[5] = Nav1.8 + FHF2B, ND7/23, 1 mM, held at −100 mV, scramble n = 8, FHF4A peptide n = 10, p > 0.05

T1 sequence (Q15858 1-1977 isoform Q15858-3 R1599P): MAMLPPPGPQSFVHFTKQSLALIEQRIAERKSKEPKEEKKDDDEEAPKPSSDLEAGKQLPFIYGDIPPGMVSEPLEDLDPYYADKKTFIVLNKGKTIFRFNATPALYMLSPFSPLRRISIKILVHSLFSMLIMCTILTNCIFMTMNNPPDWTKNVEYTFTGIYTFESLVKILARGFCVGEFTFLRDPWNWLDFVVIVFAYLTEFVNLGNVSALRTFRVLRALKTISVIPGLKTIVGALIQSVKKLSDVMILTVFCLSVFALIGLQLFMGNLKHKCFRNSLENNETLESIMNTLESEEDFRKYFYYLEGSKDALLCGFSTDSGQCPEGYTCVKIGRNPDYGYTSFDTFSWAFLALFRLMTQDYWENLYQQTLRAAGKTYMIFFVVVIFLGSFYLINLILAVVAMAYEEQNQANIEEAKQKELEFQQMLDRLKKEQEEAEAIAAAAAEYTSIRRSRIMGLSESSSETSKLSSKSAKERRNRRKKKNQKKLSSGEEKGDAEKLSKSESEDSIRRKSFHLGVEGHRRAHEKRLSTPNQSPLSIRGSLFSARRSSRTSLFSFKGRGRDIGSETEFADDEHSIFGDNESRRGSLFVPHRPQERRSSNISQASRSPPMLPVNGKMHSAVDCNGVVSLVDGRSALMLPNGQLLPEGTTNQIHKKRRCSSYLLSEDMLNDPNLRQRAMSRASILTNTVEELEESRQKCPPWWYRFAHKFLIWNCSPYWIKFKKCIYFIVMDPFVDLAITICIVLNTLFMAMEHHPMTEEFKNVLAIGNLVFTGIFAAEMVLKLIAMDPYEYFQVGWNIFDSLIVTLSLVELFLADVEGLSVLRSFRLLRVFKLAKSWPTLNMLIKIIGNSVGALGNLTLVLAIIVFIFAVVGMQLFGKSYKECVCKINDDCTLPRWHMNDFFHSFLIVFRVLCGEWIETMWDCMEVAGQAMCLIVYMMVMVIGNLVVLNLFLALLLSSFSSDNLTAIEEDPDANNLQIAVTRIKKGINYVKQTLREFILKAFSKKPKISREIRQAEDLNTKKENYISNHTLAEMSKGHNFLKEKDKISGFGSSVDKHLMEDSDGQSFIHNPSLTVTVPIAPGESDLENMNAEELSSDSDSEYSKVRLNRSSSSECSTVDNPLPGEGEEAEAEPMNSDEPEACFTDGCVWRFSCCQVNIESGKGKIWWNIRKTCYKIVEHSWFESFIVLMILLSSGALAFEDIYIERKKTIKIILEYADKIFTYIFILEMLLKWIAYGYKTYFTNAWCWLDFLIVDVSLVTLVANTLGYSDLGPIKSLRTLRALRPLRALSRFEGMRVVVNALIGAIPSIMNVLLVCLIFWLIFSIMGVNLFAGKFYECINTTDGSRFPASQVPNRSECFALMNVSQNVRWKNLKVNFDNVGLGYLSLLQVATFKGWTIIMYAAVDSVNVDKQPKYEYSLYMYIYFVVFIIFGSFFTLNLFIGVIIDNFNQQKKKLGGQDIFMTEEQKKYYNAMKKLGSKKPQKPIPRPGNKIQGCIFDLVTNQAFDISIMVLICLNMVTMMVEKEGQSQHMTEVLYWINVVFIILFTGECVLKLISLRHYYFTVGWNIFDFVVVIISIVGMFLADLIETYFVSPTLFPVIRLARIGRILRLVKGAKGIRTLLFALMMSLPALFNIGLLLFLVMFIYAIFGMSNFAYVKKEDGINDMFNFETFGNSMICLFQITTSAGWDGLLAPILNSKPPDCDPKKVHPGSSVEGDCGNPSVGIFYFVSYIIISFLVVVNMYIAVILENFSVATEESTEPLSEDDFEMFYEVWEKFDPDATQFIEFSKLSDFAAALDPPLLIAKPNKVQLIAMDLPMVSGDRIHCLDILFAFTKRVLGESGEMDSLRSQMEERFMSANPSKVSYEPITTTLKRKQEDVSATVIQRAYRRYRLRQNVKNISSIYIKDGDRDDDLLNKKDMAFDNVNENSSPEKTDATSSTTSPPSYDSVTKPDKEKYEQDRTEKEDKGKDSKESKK
T1 sequence (Q07699 19-218 partner): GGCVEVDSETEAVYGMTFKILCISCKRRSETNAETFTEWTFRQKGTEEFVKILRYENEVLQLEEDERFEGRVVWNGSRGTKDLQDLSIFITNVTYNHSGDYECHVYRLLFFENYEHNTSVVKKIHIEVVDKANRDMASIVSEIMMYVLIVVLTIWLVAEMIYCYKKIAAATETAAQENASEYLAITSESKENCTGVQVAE
T1 sequence (O60939 30-215 partner): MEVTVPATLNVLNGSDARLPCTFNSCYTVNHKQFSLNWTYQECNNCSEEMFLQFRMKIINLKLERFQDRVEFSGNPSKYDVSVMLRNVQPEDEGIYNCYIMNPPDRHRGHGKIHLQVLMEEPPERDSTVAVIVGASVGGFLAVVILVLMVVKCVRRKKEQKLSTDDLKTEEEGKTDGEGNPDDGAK

AAAIASGLIRQKRQAREQHW [FHF4A peptide, synthetic 20-residue peptide from FHF4A A2 – W21]
inhibition of Navβ4 peptide-mediated rpNav1.7 INaR [1]: inhibited completely
average FHF4A peptide mediated INaR amplitude (peak, −15 mV), Nav1.8 (human Nav1.8 [2]; Nav1.8 + FHF2B, ND7/23, 500 nM TTX, 1 mM peptide intracellular, measured after 20 ms into repolarization, mean ± S.E., n = 9): 4.8% ± 0.5%
potential at which INaR peaked (human Nav1.8 [2]; [4]): −15 mV
range of voltages at which INaR observed (human Nav1.8 [2]; [4]): −40 to +20 mV
saturation of effect on INaR (human Nav1.8 [2]; concentration-dependent curve, 1 mM): did not saturate at 1 mM
average INaR amplitude at −15 mV, Y1717K (Nav1.8 Y1717K): 4.6% ± 0.8%
effect on steady-state activation or inactivation (human Nav1.8 [3]; Nav1.8 + FHF2B, ND7/23, FHF4A peptide): did not alter steady-state activation or inactivation
V1/2 (activation), Nav1.8, Figure 6 (human Nav1.8 [3]; [5]): −12.5 ± 1.7 mV
V1/2 (inactivation), Nav1.8, Figure 6 (human Nav1.8 [3]; [5]): −42.4 ± 4.3 mV
INaP, Nav1.8 (human Nav1.8 [3]; end of 50-ms pulse of +10 mV, normalized to peak transient current, 1 mM FHF4A peptide, n = 9): 3.0 ± 1.8 (9) %
effect on fast inactivation after Nav1.8 opens (Nav1.8): accelerates fast inactivation after Nav1.8 opens
